Several values for one entry are separate records, joined by “and”; a condition that tells them apart may be missing. Equal values may be shown once.
Legend:
Assay type in all cases: physicochemical
[1] = Photochromic property of binder sheet (photochromic layer made by binder method); conditions: for Residual ratio: A96/A0 x 100 after 96 hours accelerated degradation, xenon weather meter X25; for Color developing density at 23°C: absorbance difference after 240 seconds irradiation at the maximum absorption wavelength of the same line
Method: (§1) The resulting photochromic laminates were evaluated by the below-mentioned methods. • (1) Photochromic property • [1] Maximum absorption wavelength (λmax): This is the maximum absorption wavelength after color development determined by a spectrophotometer manufactured by Otsuka Electronics Co., Ltd. (instantaneous multichannel photo detector MCPD3000) and was used as an index of a color tone upon color development. • [2] Color developing density at 23°C (A23): This is a difference between an absorbance {ε(240)} after irradiation with light at 23°C for 240 seconds and an absorbance ε(0) when not irradiated with light at the maximum absorption wavelength and was used as an index of a color developing density. The higher this value is, the better a photochromic property is. • [3] Color fading half-life at 23°C [τ1/2 (sec).)]: This is a period of time taken by an absorbance at the maximum absorption wavelength of a sample to decrease to 1/2 of {ε(240)-ε(0)} when irradiation is stopped after irradiation with light at 23°C for 240 seconds, and was used as an index of a color fading rate. The shorter this period of time is, the faster the color fading rate is. • [4] Residual ratio (A96/A0 x 100): The resulting photochromic plastic lens was subjected to accelerated degradation for 96 hours using a xenon weather meter X25 manufactured by Suga Test Instruments Co., Ltd. Color developing densities were then evaluated before and after a test, and a color developing density before the test (A0) and a color developing density after the test (A96) were measured. A ratio (A96/A0) was determined as a residual ratio and was used as an index of color development durability. The higher the residual ratio is, the more durable the color development is.
A binder sheet was produced as follows. The binder sheet was made by laminating a first optical sheet, a first adhesive layer, a photochromic layer, a second adhesive layer, and a second optical sheet in this order. A polycarbonate sheet with a thickness of 400 µm was used as the first optical sheet and the second optical sheet.
A 2 L four-necked flask equipped with a stirring blade, a condense tube, a thermometer, and a nitrogen gas inlet tube was charged with 315 parts by mass of polycarbonate diol with a number average molecular weight of 1000, 100 parts by mass of isophorone diisocyanate, and 72 parts by mass of toluene and reacted under a nitrogen atmosphere at 100°C for 7 hours. Thus, a urethane prepolymer with a terminal isocyanate group was synthesized. After the reaction of the above-mentioned urethane prepolymer was completed, the resulting reaction liquid was cooled to about 0°C and dissolved in 205 parts by mass of tertiary-butyl alcohol and 382 parts by mass of diethyl ketone, and then a temperature of the resulting liquid was kept at 0°C. Next, a mixed solution of 21.3 parts by mass of bis-(4-aminocyclohexyl)methane serving as a chain extender and 20 parts by mass of diethyl ketone was added dropwise thereto within 30 minutes and reacted at 0°C for 1 hour. Then, 8.1 parts by mass of 1,2,2,6,6-pentamethyl-4-aminopiperidine was added dropwise thereto and reacted at 0°C for 1 hour to obtain a solution of a terminal non-reactive urethane urea resin in diethylketone.
One hundred parts by mass of the resulting solution of a terminal non-reactive urethane urea resin, 6.3 parts by mass of Example 1 (a photochromic compound represented by Formula (1-7), an isomer mixture of 4,4'-methylenebis(cyclohexylisocyanate) (polyisocyanate compound)), 0.4 parts by mass of ethylenebis(oxyethylene) bis[3-(5-tert-butyl-4-hydroxy-m-tolyl) propionate] serving as an antioxidant, and 0.06 parts by mass of L-7001 manufactured by DuPont Toray Specialty Materials K.K. serving as a surfactant were added and stirred and mixed at room temperature to obtain a composition for forming a photochromic layer. […]

[2] = Photochromic property of photochromic cured product made by kneading method; conditions: for Residual ratio: A96/A0 x 100 after 96 hours accelerated degradation, xenon weather meter X25; for Color developing density at 23°C: absorbance difference after 240 seconds irradiation at the maximum absorption wavelength of the same line
Method: as §1
First, the photochromic compound obtained in Example 1, an additive, and a polymerizable compound were mixed to obtain a curable composition. The polymerizable compound was a combination of the following polymerizable monomers: • · 1,3-Bis(isocyanatomethyl)cyclohexane: 36.7 parts by mass • · Pentaerythritol tetrakis(3-mercaptopropionate): 39.4 parts by mass • · Polyoxyethylene polyoxypropylene lauryl ether (WONDERSURF 140 manufactured by AOKI OIL INDUSTRIAL Co., Ltd.): 17.4 parts by mass • · 1-Decanethiol: 2.8 parts by mass • · RX-1 prepared by the method described in Patent Document 14: 3.8 parts by mass
Note that, in the curable composition, the photochromic compound was added in an amount of 0.106 mmol taking a total amount of the polymerizable monomers as 100 g.
The following additives were used: • · Dimethyltin dichloride: 0.05 parts by mass • · Irganox 245: 0.1 parts by mass • · 2-Ethylhexyl […]: 0.6 parts by mass
After the thus-prepared curable composition was thoroughly defoamed, it was poured into a glass mold with a gap of 1 mm and polymerized by casting polymerization. […] After the polymerization, the resulting cured product was removed from the glass mold to obtain a photochromic cured product with a thickness of 1 mm. The resulting photochromic cured product was evaluated in the same manner as for Example 23.
Photochromic cured products were produced using the photochromic compounds shown in Table 4 in the same manner as in Example 50.

[3] = Photochromic property of photochromic laminate made by coating method; conditions: for Residual ratio: laminate by coating method, A96/A0 x 100 after 96 hours accelerated degradation, xenon weather meter X25
Description: First, the photochromic compound obtained in Example 1, a photoinitiator, and a polymerizable compound were mixed to obtain a curable composition.
The polymerizable compound was a combination of the following radical polymerizable monomers:
Polyethylene glycol dimethacrylate (average molecular weight: 736): 42 parts by mass • Polyethylene glycol dimethacrylate (average molecular weight: 536): 12 parts by mass • Trimethylolpropane methacrylate: 38 parts by mass γ-Methacryloyloxypropyltrimethoxysilane: 2 parts by mass Glycidyl methacrylate: 1 part by mass.
Note that, in the curable composition, the photochromic compound was added in an amount of 0.25 mmol taking a total amount of the radical polymerizable monomers as 100 g.
Phenylbis(2,4,6-trimethylbenzoyl)phosphine oxide (photoinitiator: Omnirad 819): 0.3 parts by mass Ethylene bis(oxyethylene) bis[3-(5-tert-butyl-4-hydroxy-m-tolyl) propionate] (stabilizer, Irganox 245): 1 part by mass Bis(1,2,2,6,6-pentamethyl-4-piperidyl)sebacate: 3 parts by mass Leveling agent (L-7001) manufactured by DuPont Toray Specialty Materials K.K.: 0.1 parts by mass.
Using this curable composition, a photochromic laminate was obtained by a lamination method including polymerization as follows.
First, a thiourethane plastic lens with a center thickness of 2 mm and a refractive index of 1.60 was prepared as an optical substrate. Note that, the thiourethane plastic lens had been alkaline-etched in a 10% sodium hydroxide aqueous solution at 50°C for 5 minutes in advance, and then thoroughly washed with distilled water.
A spin coater (1H-DX2, manufactured by MIKASA CO., LTD) was used to coat a surface of the above-mentioned plastic lens with a moisture-curing primer (product name: TR-SC-P, manufactured by Tokuyama Corporation) at a rotation speed of 70 rpm for 15 seconds, followed by 1000 rpm for 10 seconds. Then, about 2 g of the photochromic curable composition obtained above was spin-coated at a rotation speed of 60 rpm for 40 seconds, followed by 600 rpm for 10 to 20 seconds so as to achieve a photochromic coating layer with a thickness of 40 µm.
The lens of which surface had been coated with the photochromic curable composition (photochromic coating layer) was irradiated with light for 90 seconds in a nitrogen gas atmosphere using a metal halide lamp with an output of 200 mW/cm^2 to cure the coating. The resultant was then further heated at 110°C for 1 hour to produce a photochromic laminate with a photochromic layer.
Photochromic laminates were produced using the photochromic compounds obtained in Examples 2 to 20 in the same manner as in Example 21.
Photochromic laminates were obtained using photochromic compounds represented by Formulae (A) to (D) below in the same manner as in Example 21. [drawing 89] [drawing 90] [drawing 91] [drawing 92] [drawing 93]
as §1, with “Residual ratio (A96/A0 x 100): The resulting photochromic plastic lens was subjected to accelerated degradation for 96 hours using a xenon weather meter X25 manufactured by Suga Test Instruments Co., Ltd. Color developing densities were then evaluated before and after a test, and a color developing density before the test (A0) and a color developing density after the test (A96) were measured. A ratio (A96/A0) was determined as a residual ratio and was used as an index of color development durability. The higher the residual ratio is, the more durable the color development is.” left out

[4] = Solubility of photochromic compound in polymerizable compounds; parameters: key: 1: No haze is seen when checked under transmission of light, and the sample is completely dissolved.; 2: A very thin haze is seen to the extent that it can be seen under transmission of light.; 3: A thin haze that can be seen under transmission of light is seen.; 4: A haze can be seen even without transmission of light; conditions: 35 µmol/g in radical polymerizable compound composition of Example 21, 65 to 70°C; for Dissolution for 15 min / Dissolution for 30 min / Dissolution for 45 min: stirring and ultrasonic irradiation; for Dissolution for 1 hour: head reads 60 min in Tables 8 to 14
Method: The photochromic compounds according to Examples and Comparative examples shown in Table 5 were evaluated for solubility in polymerizable compounds.
Specifically, a sample was prepared by adding each of the photochromic compounds to the composition, which consisted of a radical polymerizable compound, among the curable compositions used in Example 21.
Note that, this test was performed using "YOKAI-KUN USS-1" manufactured by NIHONSEIKI KAISHA LTD. under the following conditions: • Dissolution temperature: 65 to 70°C • Stirring condition: Stirring dial of 5. Ultrasonic irradiation condition: Irradiation interval of 3 sec.
Dissolution was checked every 15 minutes up to 1 hour later, the sample was visually checked by transmitting light through the sample, and a degree of dissolution was evaluated according to the following four evaluation criteria.
• 1: No haze is seen when checked under transmission of light, and the sample is completely dissolved. • 2: A very thin haze is seen to the extent that it can be seen under transmission of light. • 3: A thin haze that can be seen under transmission of light is seen. • 4: A haze can be seen even without transmission of light.
A shorter time required for the evaluation result to be 1 means higher solubility.

| Compound | Residual ratio [1] | Color developing density at 23°C [1] | Residual ratio [2] | Residual ratio [3] | Color developing density at 23°C [2] | Color fading half-life at 23°C [3] | Dissolution for 15 min [4] | Dissolution for 30 min [4] | Dissolution for 45 min [4] | Dissolution for 1 hour [4] |
| --- | --- | --- | --- | --- | --- | --- | --- | --- | --- | --- |
| CCCCCCC1(CC)c2ccccc2-c2c1c1c(c3cc(OC)ccc23)OC(c2ccc(C)cc2)(c2ccc(N(C)c3ccccc3)cc2)C=C1 (centres unmarked) [Formula (7-4)] |  |  | 67% and 66% | 60% | 0.63 - and 1.13 - |  |  |  |  |  |
| CCCCCCC1(CC)c2cc(-c3ccc(OC(C)C)cc3)ccc2-c2c1c1c(c3cc(OC)c(-c4ccc(OC(C)C)cc4)cc23)OC(c2ccc(OC)cc2)(c2ccc(OCCC)cc2)C=C1 (centres unmarked) [Formula (11-1)] | 92% and 91% | 1.21 - and 1.03 - |  | 69% 69% |  |  |  |  |  |  |
| CCCCCC1(CCC)c2cc(N(c3ccccc3)c3ccccc3)ccc2-c2c1c1c(c3cc(OC)ccc23)OC(c2ccc(OC)cc2)(c2ccc(OC)cc2)C=C1 (centres unmarked) [Formula (8-3)] |  |  | 72% and 71% |  | 1.07 - and 0.96 - | 1.67 min |  |  |  |  |
| CCCC1(CC)c2cc(C)ccc2-c2c1c1c(c3cc(C)c(-c4ccc(OC)cc4)cc23)OC(c2ccc(OC)cc2)(c2ccc(N(c3ccccc3)c3ccccc3)cc2)C=C1 (centres unmarked) [Formula (12-2)] |  |  | 66% and 65% |  | 0.64 - and 1.23 - |  |  |  |  |  |
| CCCCCC1(CC)c2cc(OC(F)(F)F)ccc2-c2c1c1c(c3cc(OC)ccc23)OC(c2ccc(OC)cc2)(c2ccc(OC)cc2)C=C1 (centres unmarked) [Formula (15-1)] | 90% and 91% | 0.61 - and 0.73 - |  |  |  |  | 3 | 2 | 1 | 1 |

Further lines, results first:

| Residual ratio [1] | Color developing density at 23°C [1] | Residual ratio [2] | Residual ratio [3] | Color developing density at 23°C [2] | Color fading half-life at 23°C [3] | Dissolution for 15 min [4] | Dissolution for 30 min [4] | Dissolution for 45 min [4] | Dissolution for 1 hour [4] | Compound |
| --- | --- | --- | --- | --- | --- | --- | --- | --- | --- | --- |
| 80% and 81% | 1.33 - and 0.84 - |  |  |  |  |  |  |  |  | CCCCC1(C)c2cc(-c3ccc(C)cc3)ccc2-c2c1c1c(c3cc(OC)c(OC)cc23)OC(c2ccc(OC)cc2)(c2ccc(OC)cc2)C=C1 (centres unmarked) [Formula (5-6)] |
| 68% and 70% | 1.68 - and 0.84 - | 58% and 59% |  |  |  |  |  |  |  | CCCCC1(CC)c2cc(-c3ccc(C(C)(C)C)cc3)ccc2-c2c1c1c(c3cc(OC)c(N4CCCCC4)cc23)OC(c2ccc(OC)cc2)(c2ccc(OC)cc2)C=C1 (centres unmarked) [Formula (17-2)] |
|  |  | 70% and 69% |  | 1.10 - and 1.07 - | 1.42 min | 3 | 2 | 1 | 1 | CCCCC1(CCC)c2cc(C)ccc2-c2c1c1c(c3cc(OC)c(-c4ccc(N5CCOCC5)cc4)cc23)OC(c2ccc(OC)cc2)(c2ccc(N3CCOCC3)cc2)C=C1 (centres unmarked) [Formula (10-1)] |

— EP4763837A1, “PHOTOCHROMIC COMPOUND, CURABLE COMPOSITION, OPTICAL ARTICLE, LENS, AND EYEGLASSES” (TOKUYAMA CORPORATION, priority 2023, dated 2025)
